US5250428A, “L-gulono-gamma-lactone-dehydrogenase for producing vitamin C” (Hoffmann-La Roche Inc., priority 1990, dated 1993)
Where “and” joins values, the source holds several entries; their conditions need not be identical. Equal values may be shown once.

Key:
[1] = test system: L-gulono-gamma-lactone dehydrogenase (GLDH); experiment: Effect of metal ions on GLDH enzyme activity; type: biochemical, Gluconobacter oxydans DSM 4025
Protocol: The enzyme assay was performed at 25° C. by measuring the decrease of absorbance at 600 nm of DCIP spectrophotometrically. One unit of enzyme activity was defined as the amount of enzyme which catalyzed the reduction of 1 μmole of DCIP per minute. […] A reference cuvette contained all components except L-gulono gamma-lactone. The reaction was started by the addition of L-gulono-gamma-lactone. Enzyme activity was measured as the initial reduction rate of DCIP.
Using the same enzyme assay method as described under 1), the effect of various metal ions on the enzyme activity was examined.

[2] = test system: L-gulono-gamma-lactone dehydrogenase (GLDH); experiment: Substrate specificity of GLDH (DCIP reduction enzyme assay); type: biochemical, Gluconobacter oxydans DSM 4025; details: substrate 400 mM; for Relative activity (%): 25° C., DCIP/PMS, L-gulono-gamma-lactone = 100
Protocol: (§1) The enzyme assay was performed at 25° C. by measuring the decrease of absorbance at 600 nm of DCIP spectrophotometrically. One unit of enzyme activity was defined as the amount of enzyme which catalyzed the reduction of 1 μmole of DCIP per minute. The extinction coefficient of DCIP at pH 7.0 was taken as 14.5 mM^-1. A cuvette with 1 cm light path contained 0.16 mM DCIP, 1.6 mM phenazine methosulfate, 200 mM potassium phosphate buffer, 400 mM L-gulono-gamma-lactone, enzyme solution and water in a final volume of 0.5 ml. A reference cuvette contained all components except L-gulono gamma-lactone. The reaction was started by the addition of L-gulono-gamma-lactone. Enzyme activity was measured as the initial reduction rate of DCIP.
Substrate specificity of the enzyme was determined using the same enzyme assay method as described as above except that the various substrate solutions (400 mM) were used instead of L-gulono-gamma-lactone.

[3] = test system: L-gulono-gamma-lactone dehydrogenase (GLDH); experiment: Effect of inhibitors on GLDH enzyme activity; type: biochemical, Gluconobacter oxydans DSM 4025
Protocol: as §1
Using the same enzyme assay method as described above, the effect of various inhibitors on the enzyme activity was examined. No compounds tested gave an inhibitory effect on the GLDH.

[4] = test system: L-gulono-gamma-lactone dehydrogenase (GLDH); experiment: Measurement of the Km value (DCIP enzyme assay); type: biochemical, Gluconobacter oxydans DSM 4025
Protocol: as §1
Using the same enzyme assay method as described above, the rate of the oxidizing reaction with varying the concentrations of L-gulono-gamma lactone from 0.18 mM to 90 mM was measured to determine the Km value for L-gulono-gamma-lactone.

[5] = test system: L-gulono-gamma-lactone dehydrogenase (GLDH); details: conversion of L-gulono-gamma-lactone to L-ascorbic acid

Compound | Relative activity (%) ([1]; metal 0.19 mM) | Relative activity (%) ([1]; metal 0.38 mM) | Relative activity (%) ([1]; metal 0.89 mM) | other results
O.O.O.O.O=[N+]([O-])[O-].O=[N+]([O-])[O-].[Ca+2] [Ca(NO3)2.4H2 O] | 100 | 100 | 96 | 
[Ca+2].[Cl-].[Cl-] [CaCl2] | 96 | 104 | 96 | 
O.O.O.O.O.O.[Cl-].[Cl-].[Co+2] [CoCl2.6H2 O] | 102 | 110 | 100 | 
O.O.O.O.O.O.O.O=S(=O)([O-])[O-].[Co+2] [CoSO4.7H2 O] | 96 | 108 | 88 | 
O.O.O.O=[N+]([O-])[O-].O=[N+]([O-])[O-].[Cu+2] [Cu(NO3)2.3H2 O] | 88 | 24 | 0 | 
O.O.[Cl][Cu][Cl] [CuCl2.2H2 O] | 84 | 8 | 0 | 
O.O.O.O.O.O=S(=O)([O-])[O-].[Cu+2] [CuSO4.5H2 O] | 80 | 20 | 0 | 
O=S(=O)([O-])[O-].[Cu+2] [CuSO4] | 92 | 24 | 12 | 
[Cu+2] [Cu^2+] |  |  |  | inhibition of the enzyme by metal ion [1]: strong inhibition
O=C[C@H](O)[C@@H](O)[C@@H](O)[C@H](O)CO [D-Galactose] |  |  |  | Relative activity (%) [2]: 0%
O=C(O)[C@H](O)[C@@H](O)[C@H](O)[C@H](O)CO [D-Gluconic acid] |  |  |  | Relative activity (%) [2]: 0%
O=C1O[C@H](CO)[C@@H](O)[C@H](O)[C@H]1O [D-Glucono-δ-lactone] |  |  |  | Relative activity (%) [2]: 0%
O=C[C@H](O)[C@@H](O)[C@H](O)[C@H](O)CO [D-Glucose] |  |  |  | activity of GLDH on substrate [2]: weakly active; Relative activity (%) [2]: 23.4%
O=C[C@H](O)[C@@H](O)[C@H](O)[C@H](O)C(=O)O [D-Glucuronic acid] |  |  |  | Relative activity (%) [2]: 0%
O=C[C@H](O)[C@H]1OC(=O)[C@@H](O)[C@H]1O [D-Glucurono-r-lactone] |  |  |  | activity of GLDH on substrate [2]: weakly active; Relative activity (%) [2]: 6.38%
O=C[C@@H](O)[C@@H](O)[C@H](O)[C@H](O)CO [D-Mannose] |  |  |  | activity of GLDH on substrate [2]: weakly active; Relative activity (%) [2]: 7.23%
O=C[C@H](O)[C@@H](O)[C@H](O)CO [D-Xylose] |  |  |  | activity of GLDH on substrate [2]: highly active; Relative activity (%) [2]: 110.6%
O=C(O)CN(CCN(CC(=O)O)CC(=O)O)CC(=O)O [EDTA] |  |  |  | Relative activity (%) [3]: 95.2% and 100% and 90.5%
NN [Hydrazine monohydrate] |  |  |  | Relative activity (%) ([3]; inhibitor 1.0 mM): 100%
Cl.NO [Hydroxylamine hydrocloride] |  |  |  | Relative activity (%) ([3]; inhibitor 1.0 mM): 100%; Relative activity (%) ([3]; inhibitor 2.0 mM): 100%
O=C1O[C@H]([C@@H](O)CO)[C@@H](O)[C@@H]1O [L-Galactono-r-lactone, L-galactono-gamma-lactone] |  |  |  | activity of GLDH on substrate [2]: does not use L-galactono-gamma-lactone as a substrate; Relative activity (%) [2]: 0%

Compound | Relative activity (%) ([1]; metal 0.19 mM) | Relative activity (%) ([1]; metal 0.38 mM) | Relative activity (%) ([1]; metal 0.89 mM) | other results
O=C1O[C@H]([C@@H](O)CO)[C@H](O)[C@@H]1O [L-Gulono-r-lactone, L-gulono-gamma-lactone] |  |  |  | Km ([4]; DCIP as the electron acceptor, substrate 0.18 mM to 90 mM, read-out: apparent Michaelis constant (Km)): 34.8 mM; substrate concentration of maximum reaction rate ([4]; substrate varied 0.18 mM to 90 mM): about 71.8 mM; activity of GLDH on substrate [2]: highly active; Relative activity (%) [2]: 100%
O=C[C@@H](O)[C@@H](O)[C@H](O)[C@@H](O)CO [L-Gulose] |  |  |  | Relative activity (%) [2]: 0%
O.O.O.O.O.O.[Cl-].[Cl-].[Mg+2] [MgCl2.6H2 O] | 96 | 96 | 96 | 
O.O.O.O.O.O.O.O=S(=O)([O-])[O-].[Mg+2] [MgSO4.7H2 O] | 92 | 96 | 92 | 
O.O.O.O.[Cl][Mn][Cl] [MnCl2.4H2 O] | 100 | 0 | 0 | 
[Mn+2] [Mn^2+] |  |  |  | inhibition of the enzyme by metal ion [1]: strong inhibition
O=C(O)CI [Monoiodoacetate] |  |  |  | Relative activity (%) [3]: 104.8% and 100% and 92.9%
CCN1C(=O)C=CC1=O [N-Ethyl-maleimide] |  |  |  | Relative activity (%) ([3]; inhibitor 0.96 mM): 95.2%; Relative activity (%) ([3]; inhibitor 1.89 mM): 100%; Relative activity (%) ([3]; inhibitor 4.46 mM): 100%
O.O.O.O.O.O.O.O=[As]([O-])([O-])O.[Na+].[Na+] [Na2 HAsO4 7H2 O] |  |  |  | Relative activity (%) ([3]; inhibitor 0.96 mM): 95.2%; Relative activity (%) ([3]; inhibitor 1.89 mM): 104.8%; Relative activity (%) ([3]; inhibitor 4.46 mM): 97.6%
O.O.[Na+].[Na+].[O]=[Mo](=[O])([O-])[O-] [Na2 MoO4.2H2 O] | 104 | 96 | 88 | 
O.O.O.O.O.O.O.O=S(=O)([O-])[O-].[Ni+2] [NiSO4.7H2 O] | 96 | 96 | 88 | 
O=C(O)c1cc[c]([Hg][Cl])cc1 [PCMB, p-chloro-mercuribenzoate] |  |  |  | Relative activity (%) ([3]; inhibitor 0.96 mM): 90.5%; Relative activity (%) ([3]; inhibitor 1.89 mM): 102.4%; Relative activity (%) ([3]; inhibitor 4.46 mM): 100%
[N-]=[N+]=[N-] [Sodium azide] |  |  |  | Relative activity (%) ([3]; inhibitor 0.96 mM): 100%; Relative activity (%) ([3]; inhibitor 1.89 mM): 97.6%; Relative activity (%) ([3]; inhibitor 4.46 mM): 97.6%
[F-].[Na+] [Sodium fluoride] |  |  |  | Relative activity (%) ([3]; inhibitor 0.96 mM): 107.1%; Relative activity (%) ([3]; inhibitor 1.89 mM): 114.3%; Relative activity (%) ([3]; inhibitor 4.46 mM): 97.6%
[Cl-].[Cl-].[Zn+2] [ZnCl2] | 88 | 88 | 80 | 
O.O.O.O.O.O.O.O=S(=O)([O-])[O-].[Zn+2] [ZnSO4.7H2 O] | 88 | 88 | 76 | 
O=O [oxygen] |  |  |  | enzyme activity with oxygen as electron acceptor [5]: lack of enzyme catalyzing activity
Fe(SO4)3.xH2 O | 104 | 92 | 76 | 
MnSO4.4-6H2 O | 100 | 0 | 0 | 
TiCl | 88 | 92 | 80 | 
